This is an account of results in PubChem BioAssay (NCI).

“And” between values parts separate entries of the source, which are not always exact repeats. Equal entries are not always repeated.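 Protocol summary: plate cells (96-well), add compound at 5 concentrations, incubate 48 h, interpolate endpoints linearly. GI50 = concentration required for 50% inhibition of growth. At the TGI there is no net growth.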

Among the test systems are 786-0 renal; U251 CNS; SK-MEL-2 melanoma; HL-60(TB) leukemia; HCC-2998 colon; CAKI-1 renal; HT29 colon; PC-3 prostate; COLO 205 colon; MOLT-4 leukemia.
What all share (experiment): growth of human tumour cells (NCI), 48 h

`COc1cccc2c(Nc3ccc(C(=O)NCCN(C)C)cc3)cc(-c3ccccc3)nc12`: the GI50 was 2.26 µM with 786-0 renal; 18.8 µM with U251 CNS; 17.9 µM in the assay on SK-MEL-2 melanoma; 14.9 µM in the assay with HL-60(TB) leukemia; 11.5 µM in the assay with HCC-2998 colon; 27.8 µM in the assay on CAKI-1 renal. For the same compound, the GI50 is 28.5 µM in the assay on HT29 colon, 13.3 µM with PC-3 prostate and 11.2 µM in the assay on COLO 205 colon. The TGI in the assay on 786-0 renal was found to be 14.2 µM; in the assay on U251 CNS it was 38.3 µM; in the assay on SK-MEL-2 melanoma, 36.8 µM; in the assay with HL-60(TB) leukemia, 39.9 µM; in the assay on HCC-2998 colon, 24.9 µM; with CAKI-1 renal, 55.3 µM. The values for the TGI in the assay with HT29 colon, in the assay with PC-3 prostate and in the assay with COLO 205 colon were > 100 µM, 40.5 µM and 26.5 µM, respectively.

As to `CCCCC#Cc1cccc(=O)o1`, the GI50 in the assay with 786-0 renal is > 100 µM; in the assay on SK-MEL-2 melanoma, 20.8 µM; with HL-60(TB) leukemia it was 1.86 µM; in the assay with CAKI-1 renal, > 100 µM; in the assay on MOLT-4 leukemia it was 3.62 µM; in the assay on HT29 colon, 7.03 µM. Moreover, the GI50 in the assay on PC-3 prostate is 25.7 µM; in the assay on COLO 205 colon, 2.23 µM. Also, the TGI with 786-0 renal, with SK-MEL-2 melanoma, in the assay on HL-60(TB) leukemia, in the assay with CAKI-1 renal, in the assay on MOLT-4 leukemia and with HT29 colon was > 100 µM in each case. Further, the figures for the TGI with PC-3 prostate and with COLO 205 colon were > 100 µM and 5.3 µM, respectively.

As for `COc1cc(/C=C/C(=O)c2cc(OC)c(OC)c(OC)c2)cc(OC)c1OC`, the GI50 is 3.07 µM in the assay with 786-0 renal; 3.21 µM with U251 CNS; 1.21 µM in the assay with HL-60(TB) leukemia; 2.95 µM with HCC-2998 colon; 1.23 µM in the assay on CAKI-1 renal; 2.8 µM with MOLT-4 leukemia. Also, the values for the GI50 in the assay on HT29 colon, in the assay on PC-3 prostate and in the assay on COLO 205 colon were 3.64 µM, 5.32 µM and 9.09 µM, respectively. Besides, the TGI in the assay with 786-0 renal was 11.3 µM; in the assay on U251 CNS, 16.6 µM; in the assay on HL-60(TB) leukemia, 11.2 µM; in the assay on HCC-2998 colon, 6.65 µM; in the assay on CAKI-1 renal it was 3.87 µM; in the assay with MOLT-4 leukemia, 48.6 µM. Further, the figures for the TGI in the assay with HT29 colon, in the assay on PC-3 prostate and in the assay with COLO 205 colon were 15 µM, 27.8 µM and 25.8 µM, respectively.

Consider `CC(C)CC(=O)CC(O)C(Cl)(Cl)Cl` (stereo not drawn), for which the TGI in the assay on 786-0 renal, with U251 CNS, in the assay with SK-MEL-2 melanoma, with HCC-2998 colon, in the assay with CAKI-1 renal and in the assay with MOLT-4 leukemia was > 100 µM in each case. In addition, the TGI with HT29 colon, in the assay with PC-3 prostate and in the assay on COLO 205 colon was > 100 µM each time.

Consider `Clc1ccc(Nc2nc3ccccc3c3occc23)cc1`, for which the GI50 was 8.33 µM in the assay on 786-0 renal; 8.66 µM with U251 CNS; 9.53 µM in the assay on SK-MEL-2 melanoma; 24.4 µM with HL-60(TB) leukemia; 6.41 µM in the assay with HCC-2998 colon; 3.07 µM in the assay on CAKI-1 renal. Besides, the GI50 in the assay with PC-3 prostate was 7 µM; in the assay with COLO 205 colon, 6 µM. The TGI in the assay on 786-0 renal is 15.1 µM; with U251 CNS it was 16.2 µM; in the assay with SK-MEL-2 melanoma, 21.7 µM; in the assay on HL-60(TB) leukemia, > 50 µM; with HCC-2998 colon, 12.7 µM; in the assay with CAKI-1 renal, 10.2 µM. Besides, the values for the TGI with PC-3 prostate and with COLO 205 colon were 13.5 µM and 13 µM, respectively.

For the compound `COc1ccc(-c2[nH]ncc2-c2cc(OC)c(OC)c(OC)c2)cc1`, the GI50 in the assay on 786-0 renal is < 0.01 µM; in the assay on U251 CNS, < 0.01 µM; in the assay on SK-MEL-2 melanoma, < 0.01 µM; in the assay with HCC-2998 colon it was 0.0147 µM; in the assay on CAKI-1 renal, < 0.01 µM; in the assay on MOLT-4 leukemia, 0.0308 µM. Besides, the GI50 with HT29 colon, with PC-3 prostate and in the assay with COLO 205 colon was < 0.01 µM in each case. In addition, the TGI with 786-0 renal is 13.9 µM; with U251 CNS it was 6.11 µM; in the assay on SK-MEL-2 melanoma, 0.517 µM; with HCC-2998 colon it was 19.2 µM; in the assay with CAKI-1 renal, 25 µM; in the assay on MOLT-4 leukemia, 4.66 µM. Besides, the values for the TGI in the assay on HT29 colon, with PC-3 prostate and with COLO 205 colon were 0.0326 µM, 32.5 µM and < 0.01 µM, respectively.

Take `COc1ccc(Cn2cc(Cn3c(=O)c(-c4nc5ccccc5[nH]4)cc4ccccc43)nn2)c(OC)c1OC`: the GI50 in the assay on 786-0 renal was 0.457 µM; in the assay with U251 CNS it was 0.308 µM and 0.183 µM; with SK-MEL-2 melanoma it was 0.676 µM; in the assay with HL-60(TB) leukemia, 0.114 µM and 0.306 µM; with HCC-2998 colon, 0.174 µM and 0.291 µM; with CAKI-1 renal, 0.35 µM and 0.396 µM. Also, the GI50 was 0.468 µM in the assay with MOLT-4 leukemia, 0.0712 µM with HT29 colon and 0.313 µM with PC-3 prostate. The TGI in the assay on 786-0 renal is 2.86 µM; with U251 CNS, 8.29 µM and 17.6 µM; in the assay on SK-MEL-2 melanoma it was 2.21 µM; with HL-60(TB) leukemia, 50 µM and > 100 µM; in the assay with HCC-2998 colon, 1.2 µM and 2.07 µM; with CAKI-1 renal it was 1.47 µM and 3.92 µM. Further, the TGI in the assay on MOLT-4 leukemia was > 100 µM; in the assay with HT29 colon it was 4.05 µM; in the assay with PC-3 prostate it was > 100 µM.

On to `CCN1CCCCC(=N\O)/C(=N/O)CCCC1`, for which the TGI in the assay on 786-0 renal, in the assay with U251 CNS, in the assay with SK-MEL-2 melanoma, with HL-60(TB) leukemia, in the assay with CAKI-1 renal and with MOLT-4 leukemia was > 100 µM each time. Also, the TGI with HT29 colon, with PC-3 prostate and in the assay with COLO 205 colon was > 100 µM in each case.

For the compound `COc1cc2c3c(n(CCCNCCN4CCOCC4)c(=O)c2cc1OC)-c1cc2c(cc1C3=O)OCO2`, the GI50 in the assay on 786-0 renal is 1.97 µM; in the assay with SK-MEL-2 melanoma, 7.78 µM and 3.92 µM; with HL-60(TB) leukemia, 0.321 µM and 2.7 µM; in the assay on CAKI-1 renal, 2.61 µM; with MOLT-4 leukemia, < 0.005 µM; in the assay on HT29 colon, 2.2 µM and 1.78 µM. Also, the GI50 in the assay with PC-3 prostate is 1.9 µM and 1.59 µM; in the assay with COLO 205 colon, 2.01 µM and 7.31 µM. For the same compound, the TGI in the assay with 786-0 renal is 5.23 µM; in the assay on U251 CNS it was 0.959 µM and 4.55 µM; with SK-MEL-2 melanoma it was 14.7 µM and 19.7 µM; in the assay with CAKI-1 renal it was 19.4 µM; in the assay with MOLT-4 leukemia, 19.7 µM; in the assay on HT29 colon it was 50 µM and > 100 µM. The TGI is 9.18 µM and 4.91 µM in the assay with PC-3 prostate; 50 µM and 45.8 µM in the assay on COLO 205 colon.
